IC50 data for 40 compounds are collected here from US20260166039A1 (SCHRÖDINGER, INC., priority 2022, published 2026).

T1 sequence (P30291 299-569 limits assumed): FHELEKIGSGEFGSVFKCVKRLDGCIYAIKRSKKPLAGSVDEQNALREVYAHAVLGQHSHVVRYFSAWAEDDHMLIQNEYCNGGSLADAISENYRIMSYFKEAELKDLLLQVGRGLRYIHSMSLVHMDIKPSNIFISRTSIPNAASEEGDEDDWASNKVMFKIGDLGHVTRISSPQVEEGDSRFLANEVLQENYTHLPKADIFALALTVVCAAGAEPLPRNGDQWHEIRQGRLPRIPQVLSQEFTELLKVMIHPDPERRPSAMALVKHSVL

The first assay addresses T1, Wee1 kinase domain (Homo sapiens, UniProt P30291).
T1 construct: Wee1 kinase domain was purchased from Carna (catalog #05-177); purchased Carna 05-177
In words: Wee1 Kinase Biochemical Assay (ADP-Glo). To be noted: 1 nM Wee1 enzyme, 15 uM ATP, 4 hours at 25° C. The gist of the method: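 Poly(Lys,Tyr 4:1) phosphorylation by the kinase domain is followed as ADP output (ADP-Glo) after 4 h at 25 °C, with ATP at 15 uM. Values are percent inhibition between vehicle and full-inhibition controls.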
For `CC(C)n1ccc(Nc2ncc3c(n2)N(c2cccc(N=S(C)(C)=O)n2)[C@@H]2CC(C)(C)OC[C@]32C)n1` (single isomer, unassigned) [Example 832], the half-inhibitory concentration (IC50) was less than 10 nM.

Compound `COCCN1CCC(n2ccc(Nc3ncc4c(n3)N(c3cccc(N=S(C)(C)=O)n3)[C@@H]3CC(C)(C)OC[C@]43C)cc2=O)CC1` (single isomer, unassigned) [Example 825] returned a half-maximal inhibitory concentration (IC50) of less than 10 nM.

Take `CCn1ccc(Nc2ncc3c(n2)N(c2cccc(N=S(C)(C)=O)n2)[C@@H]2CC(C)(C)OC[C@]32C)n1` (single isomer, unassigned) [Example 830]: the IC50 is less than 10 nM.

Staying with this assay, now noted: Wee1 kinase domain, 15 uM ATP, ADP-Glo.
For `[2H]C([2H])([2H])N1CCC(c2ccc(Nc3ncc4c(n3)N(c3cccc(N=S(C)(C)=O)n3)[C@H]3CC(C)(C)OC[C@@]43C)cc2)CC1` (single isomer, unassigned) [Example 161], the half-maximal inhibitory concentration (IC50) lay within 100 to 1000 nM.

As for `CNCc1cccc(N2c3nc(Nc4ccc(N5CCS(=N)(=O)CC5)cc4)ncc3[C@]3(C)COC(C)(C)C[C@H]23)n1` (single isomer, unassigned) [Example 50], the concentration for half-maximal inhibition (IC50) fell in the range of 10 to 100 nM.

Regarding `CNCc1cccc(N2c3nc(Nc4ccc([C@H]5CC(=O)N(C)C5)cc4)ncc3[C@]3(C)COC(C)(C)C[C@H]23)n1` (single isomer, unassigned) [Example 67], the IC50 fell in the range of 100 to 1000 nM.

In turn, `CNCc1cccc(N2c3nc(Nc4ccc(N5C6CCC5COC6)c(C)c4)ncc3[C@]3(C)COC(C)(C)C[C@H]23)n1` (single isomer, unassigned) [Example 86] returned a concentration for half-maximal inhibition (IC50) of 100 to 1000 nM.

As for `CNCc1cccc(N2c3nc(Nc4ccc(N5CCOCC5)c(C)c4)ncc3[C@]3(C)COC(C)(C)C[C@H]23)n1` (single isomer, unassigned) [Example 25], the 50% inhibitory concentration (IC50) was 10 to 100 nM.

`CNCc1cccc(N2c3nc(Nc4ccc(C(C)(C)C(=O)N(C)C)cc4)ncc3[C@]3(C)COC(C)(C)C[C@H]23)n1` (single isomer, unassigned) [Example 75] showed an IC50 of no less than 1000 nM.

For `CC1(C)C[C@@H]2N(c3cccc(N=S(C)(C)=O)n3)c3nc(Nc4ccc(O[C@@H]5CCNC5)cc4)ncc3[C@]2(C)CO1` (single isomer, unassigned) [Example 156], the IC50 fell in the range of 10 to 100 nM.

Compound `CC1(C)C[C@H]2N(c3cccc(N=S(C)(C)=O)n3)c3nc(Nc4ccn5ncnc5c4)ncc3[C@@]2(C)CO1` (single isomer, unassigned) [Example 385] showed a half-maximal inhibitory concentration (IC50) of less than 10 nM.

The compound `C[C@H]1COC(=O)N1c1cccc(N2c3nc(Nc4ccc(OC5CNC5)nc4)ncc3[C@]3(C)COC(C)(C)C[C@H]23)n1` (single isomer, unassigned) [Example 342] had an IC50 of 100 to 1000 nM.

In the case of `CN[C@H]1CCN(c2ccc(Nc3ncc4c(n3)N(c3cccc(N5C(=O)OC[C@@H]5C)n3)[C@H]3CC(C)(C)OC[C@@]43C)cc2)C1` (single isomer, unassigned) [Example 316], the 50% inhibitory concentration (IC50) was in the range of 10 to 100 nM.

Take `C[C@H]1COC(=O)N1c1cccc(N2c3nc(Nc4ccc(N5C[C@H]6C[C@@H]5CN6)cc4)ncc3[C@]3(C)COC(C)(C)C[C@H]23)n1` (single isomer, unassigned) [Example 276]: the IC50 was in the range of 10 to 100 nM.

Take `CNCc1cccc(N2c3nc(Nc4ccc(N5C(=O)CC[C@@H]5C)cc4)ncc3[C@]3(C)COC(C)(C)C[C@H]23)n1` (single isomer, unassigned) [Example 27]: the half-inhibitory concentration (IC50) is no less than 1000 nM.

Take `Cc1cc(Nc2ncc3c(n2)N(c2cccc(C(C)(C)O)n2)[C@H]2CC(C)(C)OC[C@@]32C)ccc1N1CCN(C)CC1` (single isomer, unassigned) [Example 10]: the 50% inhibitory concentration (IC50) was in the range of 10 to 100 nM.

`C[C@H]1COC(=O)N1c1cccc(N2c3nc(Nc4ccc(C5CNC5)cc4)ncc3[C@]3(C)COC(C)(C)C[C@H]23)n1` (single isomer, unassigned) [Example 308] came in with an IC50 of 10 to 100 nM.

`CC1(C)C[C@@H]2N(c3cccc(N=S(C)(C)=O)n3)c3nc(Nc4ccc(C5CNC5)nc4)ncc3[C@]2(C)CO1` (single isomer, unassigned) [Example 191] displayed an IC50 of 100 to 1000 nM.

The compound `CN1CC[C@H](c2ccc(Nc3ncc4c(n3)N(c3cccc(N=S(C)(C)=O)n3)[C@H]3CC(C)(C)OC[C@@]43C)cc2)C1` (single isomer, unassigned) [Example 134] registered an IC50 of 100 to 1000 nM.

Regarding `CNC(=O)c1ccc(Nc2ncc3c(n2)N(c2cccc(N=S(C)(C)=O)n2)C2CC(C)(C)OCC32C)cc1F` (single isomer, unassigned) [Example 118], the 50% inhibitory concentration (IC50) was no less than 1000 nM.

On to `C[C@H]1CN(c2ccc(Nc3ncc4c(n3)N(c3cccc(N5C(=O)OC[C@@H]5C)n3)[C@H]3CC(C)(C)OC[C@@]43C)cc2)CCN1C` (single isomer, unassigned) [Example 314], for which the 50% inhibitory concentration (IC50) is 10 to 100 nM.

`Cc1cc(Nc2ncc3c(n2)N(c2cccc(N=S(C)(C)=O)n2)[C@H]2CC(C)(C)OC[C@@]32C)ccc1[C@@H]1CCNC1` (single isomer, unassigned) [Example 144] yielded an IC50 of 100 to 1000 nM.

For the compound `CN1CCC[C@@H]1c1ccc(Nc2ncc3c(n2)N(c2cccc(N=S(C)(C)=O)n2)[C@H]2CC(C)(C)OC[C@@]32C)cn1` (single isomer, unassigned) [Example 209], the IC50 was in the range of 10 to 100 nM.

The same assay, now with this note: class symbols; 1 nM Wee1 enzyme, 15 uM ATP, 4 hours at 25° C.
As to `CN[C@H]1CCc2ccc(N3c4nc(Nc5ccc(N6CCOCC6)cc5)ncc4[C@@]4(C)COC(C)(C)C[C@@H]34)nc21` (single isomer, unassigned) [Example 552], the IC50 fell in the range of 100 to 1000 nM.

Regarding `CN1CC(c2ccc(Nc3ncc4c(n3)N(c3cccc(N5CCOC5=O)n3)[C@H]3CC(C)(C)OC[C@@]43C)cc2)C1` [Example 699, 3-(6-((4bS,8aS)-4b,7,7-trimethyl-2-((4-(1-methylazetidin-3-yl)phenyl)amino)-4b,7,8,8a-tetrahydropyrano[3′,4′:4,5]pyrrolo[2,3-d]pyrimidin-9(5H)-yl)pyridin-2-yl)oxazolidin-2-one], the 50% inhibitory concentration (IC50) lay in the range of 100 to 1000 nM.

For `CN1CCN(c2ccc(Nc3ncc4c(n3)N(c3cccc(N=S(C)(C)=O)n3)[C@@H]3CC(C)(C)OC[C@]43C)cn2)CC1` (single isomer, unassigned) [Example 509], the IC50 was less than 10 nM.

For the compound `Cn1ncc(Nc2ncc3c(n2)N(c2cccc(N=S(C)(C)=O)n2)[C@@H]2CC(C)(C)OC[C@]32C)n1` (single isomer, unassigned) [Example 515], the IC50 was less than 10 nM.

On to `CNCc1cccc(N2c3nc(Nc4ccn(C)c(=O)c4)ncc3[C@]3(C)COC(C)(C)C[C@H]23)n1` (single isomer, unassigned) [Example 455], for which the concentration for half-maximal inhibition (IC50) was no less than 1000 nM.

With `CN1CC2(C1)CN(c1ccc(Nc3ncc4c(n3)N(c3cccc(N5CCCC5=O)n3)[C@H]3CC(C)(C)OC[C@@]43C)cc1)C2` [Example 691, 1-(6-((4bS,8aS)-4b,7,7-trimethyl-2-((4-(6-methyl-2,6-diazaspiro[3.3]heptan-2-yl)phenyl)amino)-4b,7,8,8a-tetrahydropyrano[3′,4′:4,5]pyrrolo[2,3-d]pyrimidin-9(5H)-yl)pyridin-2-yl)pyrrolidin-2-one], the IC50 is 100 to 1000 nM.

Take `CNCc1ccnc(N2c3nc(Nc4ccc(N5CCOCC5)cc4)ncc3[C@@]3(C)COC(C)(C)C[C@@H]23)c1` (single isomer, unassigned) [Example 547]: the IC50 lay within 10 to 100 nM.

On to `CN1C[C@@H]2CN(c3ccc(Nc4ncc5c(n4)N(c4ccccn4)[C@@H]4CC(C)(C)OC[C@]54C)cc3)C[C@@H]2C1` (single isomer, unassigned) [Example 803], for which the concentration for half-maximal inhibition (IC50) was less than 10 nM.

`CN1CCC(n2ccc(Nc3ncc4c(n3)N(c3ccccn3)[C@@H]3CC(C)(C)OC[C@]43C)cc2=O)CC1` (single isomer, unassigned) [Example 806] registered an IC50 of less than 10 nM.

The compound `CN[C@H](C)c1cccc(N2c3nc(Nc4ccc(N5CCOCC5)cc4)ncc3[C@]3(C)COC(C)(C)C[C@H]23)n1` (single isomer, unassigned) [Example 550] came in with an IC50 of 100 to 1000 nM.

`CN1C[C@H]2C[C@@H]1CN2c1ccc(Nc2ncc3c(n2)N(c2cccc(N4C(=O)OCC4(C)C)n2)[C@@H]2CC(C)(C)OC[C@]32C)cc1` [Example 795, 4,4-dimethyl-3-(6-((4bR,8aR)-4b,7,7-trimethyl-2-((4-((1R,4R)-5-methyl-2,5-diazabicyclo[2.2.1]heptan-2-yl)phenyl)amino)-4b,7,8,8a-tetrahydropyrano[3′,4′:4,5]pyrrolo[2,3-d]pyrimidin-9(5H)-yl)pyridin-2-yl)oxazolidin-2-one]: the half-maximal inhibitory concentration (IC50) was less than 10 nM.

As to `CN1CCC(c2cccc(N3c4nc(Nc5ccc(N6CCOCC6)cc5)ncc4[C@]4(C)COC(C)(C)C[C@H]34)n2)CC1` (single isomer, unassigned) [Example 534], the IC50 was 100 to 1000 nM.

The compound `CNc1ncc2c(n1)N(c1cccc(N=S(C)(C)=O)n1)[C@@H]1CC(C)(C)OC[C@]21C` (single isomer, unassigned) [Example 723] registered an IC50 of 10 to 100 nM.

In the case of `CN[C@H](C)c1cc(C)nc(N2c3nc(Nc4ccc(N5CCOCC5)cc4)ncc3[C@]3(C)COC(C)(C)C[C@H]23)c1` (single isomer, unassigned) [Example 558], the IC50 was in the range of 100 to 1000 nM.

For `CN1CC[C@@H](c2ccc(Nc3ncc4c(n3)N(c3cccc(N5CCOC5=O)n3)[C@H]3CC(C)(C)OC[C@@]43C)cc2)C1` (single isomer, unassigned) [Example 604], the IC50 fell in the range of 10 to 100 nM.

`C[C@H]1COC(=O)N1c1cccc(N2c3nc(Nc4ccc([C@@H]5CCN(C)C5)cc4)ncc3[C@@]3(C)COCC[C@@H]23)n1` [Example 794, (S)-4-methyl-3-(6-((4bR,8aR)-4b-methyl-2-((4-((S)-1-methylpyrrolidin-3-yl)phenyl)amino)-4b,7,8,8a-tetrahydropyrano[3′,4′:4,5]pyrrolo[2,3-d]pyrimidin-9(5H)-yl)pyridin-2-yl)oxazolidin-2-one] displayed an IC50 of less than 10 nM.

The compound `CNCc1cccc(N2c3nc(Nc4cnnc(C)c4)ncc3[C@@]3(C)COC(C)(C)C[C@@H]23)n1` (single isomer, unassigned) [Example 478] returned an IC50 of 10 to 100 nM.
